Data as given in patent US6921811B2, “Bioactive coating composition and methods” (BioSurface Engineering Technologies, Inc., priority 1998, dated 2005).

Legend:
[1] = biological target: T1, vascular endothelial growth factor (VEGF) (Homo sapiens, UniProt P15692); assay: VEGF binding to silyl-heparin coated wells, immunoassay; conditions: anti-VEGF antibodies; absorbance 405 nm
T1 sequence (P15692 27-191 isoform P15692-4 limits assumed): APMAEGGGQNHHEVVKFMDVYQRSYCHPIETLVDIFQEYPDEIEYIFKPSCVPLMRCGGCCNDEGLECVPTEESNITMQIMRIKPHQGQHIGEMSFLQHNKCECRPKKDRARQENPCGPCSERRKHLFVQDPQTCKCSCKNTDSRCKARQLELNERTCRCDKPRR
Procedure: Wells of 96 well polystyrene microtiter plates were coated with 30 μL of silyl heparin for 15 minutes at 37° C. The wells were rinsed extensively in water and air-dried. The wells were blocked by adding 250 μL of PBS containing 1 % BSA for 30 minutes. After removing the blocking solution, VEGF in PBS/BSA was added in 100 μL and at the appropriate concentration. The plate was incubated at 37° C. for 1 hour and rinsed 5 times in water. An aliquot of PBS/BSA containing rabbit anti-VEGF antibodies (1:125) was added and the plate incubated for one hour. After rinsing in water, an aliquot of PBS/BSA containing horseradish peroxidase-conjugated anti-rabbit IgG (1:250) was added and incubated for one hour. After rinsing, 200 μL of chromogen (2,2′-azinobis 3-ethylbenzothiazoline-6-[…]) from a commercially available kit was added, the color developed, and the reaction stopped by adding 50 μL of aqueous 2% sodium dodecyl sulfate (SDS). The absorbance was monitored at 405 nm.

[2] = tested on: Bovine aorta endothelial cells; assay: Growth of endothelial cells across a porous membrane from coated sutures, crystal violet; format: cell-based; conditions: coated suture separated from cells by 3 micron pore membrane; 4 days
Procedure: Six-well cluster plates were seeded with 5×10^4 bovine aorta endothelial cells. Cell culture insert membranes (25 mm diameter) with 3 micron pores in the bottom were placed in each well. Suture material was coated with silyl-heparin-bFGF or silyl-heparin. 10 cm of suture material, either coated or uncoated, was placed in each well and medium added sufficient to cover the suture (3 mL total). One set of inserts containing an uncoated suture was spiked with 50 ng of bFGF by adding the bFGF directly to the medium and was used as a positive control. The cells were allowed to grow for 4 days, and were then fixed and stained with crystal violet. Thereafter, the stain was eluted in aqueous methanol and 0.4% SDS and monitored at 595 nm. bFGF from the silyl-heparin-bFGF coated suture was able to transit the separating permeable 3 micron membrane and act regionally to stimulate the growth of endothelial cells at the end of 4 days, as shown in FIG. 6.

[3] = tested on: GS-9L cells (rat gliosarcoma); assay: Cell attachment, spreading and growth on coated low-attachment polystyrene wells; format: cell-based; conditions: 10^4 cells/well, serum-containing medium
Excerpt: (§1) Several cell types were used, including GS-9L cells (rat gliosarcoma), C3H10T1/2 (murine fibroblasts), Jurkat (human T cell), bovine aorta endothelial (BAE) cells and rat lymphocytes. GS-9L and C3H10T1/2 cells were maintained in log phase growth and detached from cultureware using Versene and collected by centrifugation. Jurkat cells grew as single cell suspensions and were collected by centrifugation. Rat lymphocytes were collected from heparinized blood by density gradient isolation over Ficoll-Hypaque® media. The collected cells were rinsed once by low speed centrifugation and suspended in either serum-free Dulbecco's Modified Eagles Medium (DMEM) containing pyruvate or RPMI 1640 containing 10% fetal bovine serum (FBS) supplemented with pyruvate. Aliquots of 10^4 cells in 100 μL were used in subsequent adhesion studies.
(§2) The cells were examined after plating using an inverted, phase-contrast microscope. At selected time points up to 4 days after initial seeding, the cells were rinsed three times in saline and fixed in buffered 10% formalin or 35% ethanol. In some cases, the cells were stained in situ with a 0.01 % aqueous solution of crystal violet. The amount of attachment was scored visually or quantitated. To establish the relative number of cells bound, crystal violet stained cells were dissolved in a solution of 70% ethanol containing 0.1% sodium dodecyl sulfate and 0.38 M Tris and the absorbance monitored at 610 nm, using the methods of Scragg and Ferreira (Anal Biochem 198:80-5, 1991) and Grando et al. (Skin Pharmacol 6:135-47, 1993).
(§3) The cells of Example 7 were added to untreated polystyrene wells, wells coated with silyl-heparin as in Example 4, with silyl-heparin-fibronectin as in Example 5, and with only fibronectin by incubation as described in Example 5. […] Cells were seeded at a concentration of 10^4 cells/well in serum-containing medium.
(§4) The cells grew to confluency by 4 days. […] No effort was made to grow the cells in a defined- or serum-low medium known to support growth.

[4] = tested on: bovine aorta endothelial (BAE) cells; assay: as above; format: cell-based; conditions: 10^4 cells/well, serum-containing medium
Excerpt: as §1, §2, §3, §4

[5] = tested on: C3H10T1/2 (murine fibroblasts); assay: as above; format: cell-based; conditions: C3H10T1/2; coated low-attachment polystyrene wells; 10^4 cells/well; serum-containing medium
Excerpt: as §1, §2, §3
The cells grew to confluency by 4 days. […] No effort was made to grow the cells in a defined- or serum-low medium known to support growth. […]

[6] = biological target: T2, antithrombin/factor Xa (Homo sapiens, UniProt P01008); assay: Loading efficiency of silyl-heparin complexes on materials, heparin-specific assays; format: biochemical; conditions: varied by substrate material (polystyrene, polycarbonate, polyurethane, stainless steel, titanium and others)
T2 construct: purchased Sigma Diagnostics Procedure No. CRS 106
Excerpt: Using contacting surfaces coated with silyl-heparin as in Example 4, and to which silyl-heparin-fibronectin was attached as in Example 5, the presence of both heparin and fibronectin was detected in analytical assays. Heparin was detected using a commercially-available an enzyme-linked assay kit (Sigma Chemical Co., St. Louis) that measured the heparin-induced inhibition of antithrombin/factor Xa as measured with a factor Xa specific chromogenic substrate. The enzyme-inhibition assay was performed in low-attachment 96 well plates following the directions of the manufacturer.
In related studies, heparin-specific assays and diemethylene blue dye uptake were used to establish that silyl-heparin complexes could be bound to a variety of materials including polystyrene, hydrogel-coated polystyrene, polycarbonate, polyurethane, poly caprolactone, polyvinylchloride, stainless steel and titanium. The loading efficiency of silyl-heparin complexes varied by substrate material, but was generally in the range of 10-40 mlU of heparin per cm^2.

T2 sequence (P01008 33-464): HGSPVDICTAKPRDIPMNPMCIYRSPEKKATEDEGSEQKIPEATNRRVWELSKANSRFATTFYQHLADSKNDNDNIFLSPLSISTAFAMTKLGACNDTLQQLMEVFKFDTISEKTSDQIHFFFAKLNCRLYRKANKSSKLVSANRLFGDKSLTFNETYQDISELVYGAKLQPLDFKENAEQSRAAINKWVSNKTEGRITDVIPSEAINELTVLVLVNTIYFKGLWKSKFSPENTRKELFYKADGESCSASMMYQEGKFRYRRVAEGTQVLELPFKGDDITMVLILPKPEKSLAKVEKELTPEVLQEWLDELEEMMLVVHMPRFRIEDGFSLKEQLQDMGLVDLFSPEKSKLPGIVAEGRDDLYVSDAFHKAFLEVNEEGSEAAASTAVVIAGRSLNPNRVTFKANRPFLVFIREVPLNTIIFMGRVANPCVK

benzyl-(1,2 dimethyl)disilyl heparin [silyl-heparin]
binding of VEGF to silyl-heparin [1]: VEGF bound to silyl-heparin and the binding was linear
growth (cell number) of endothelial cells [2]: did not result in an increase in cell number
CELL ATTACHMENT [3]: did not attach
CELL ATTACHMENT [4]: did not attach
CELL ATTACHMENT [5]: did not attach
loading efficiency of silyl-heparin complexes [6]: 10-40 mlU of heparin per cm^2
